Assay results published in patent publication US20070099970A1, “Immunomodulatory compounds that target and inhibit the pY'binding site of tyrosene kinase p56 LCK SH2 domain” (priority 2005, published 2007).

These molecules were tested against T1, recombinant GST Lck SH2 domain fusion protein (Homo sapiens, UniProt P06239) (assay: solid phase EIA inhibition assay: binding of GST Lck SH2 domain to CD3 ζ chain ITAM 2 phosphopeptide). Settings: assay example 1, stronger inhibitors >60% inhibition, weaker inhibitors <60% inhibition.
T1 construct: recombinant GST Lck SH2 domain fusion protein; made in house
T1 sequence (P06239 127-224 limits assumed): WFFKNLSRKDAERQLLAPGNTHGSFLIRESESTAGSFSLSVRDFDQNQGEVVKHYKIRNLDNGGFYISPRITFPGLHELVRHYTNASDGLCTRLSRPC
Protocol: Compounds of the invention were obtained from commercial sources and were tested using a high-throughput Enzyme Immunoassay (EIA) developed to rapidly quantify inhibition.
Biological activities were measured using said EIA assay using 96 well medium binding EIA plates (Costar). Wells were coated with 100 μl of human CD3 ζ chain ITAM 2 phosphopeptide conjugated to BSA (˜10 pmole peptide equivalent) in PBS overnight at 4° C. and blocked with 300 μl of PBS containing 5% (wt/vol) powdered skim milk for 1 h at 37° C. After washing with PBS containing 1% Tween 20 (PBST), 3 times, 100 μl of precalibrated bacterial lysate containing recombinant GST Lck SH2 domain fusion protein was added in the presence or absence of test compounds and incubated for 1 h at room temperature. After 3 extensive washings with PBST, 100 μl of PBS containing HRP-conjugated rabbit anti-GST antibody was added and incubated for 1 h. After extensive washing with PBST, 100 μl of TMB substrate was added and absorbance at 620 nm was measured using a multiwell EIA plate reader (Anthos HTIII). The percent inhibition (% inhibition) was calculated based on the optical density (OD) using the formula: % inhibition=100−(ΔOD of test well/ΔOD of positive wells)×100, where ΔOD was calculated by subtracting background OD (average OD of negative wells) from the test as well as positive control wells. Error analysis was performed on two or more measurements.
In the case of `Cc1cccc(NC(=O)CN2C(=O)S/C(=C\c3ccc(O)cc3)C2=O)c1` [276-6], the “inhibitory activity, in words” value is reported as “lower activity”. `COC(=O)c1ccc(-c2ccc(/C=C3\SC(=O)N(CC(=O)Nc4ccc(C)cc4)C3=O)o2)c(C)c1` [276-8] was tested, and the “inhibitory activity, in words” value was “weak inhibitors”. `Cc1ccc(NC(=O)CN2C(=O)S/C(=C\c3ccccc3O)C2=O)cc1` [276-11] was tested, and the “inhibitory activity, in words” value was “lowest activity among the highly active compounds”. In the case of `Cc1ccc(NC(=O)CN2C(=O)S/C(=C/c3ccc(-c4ccc(Cl)c(C(=O)O)c4)o3)C2=O)cc1` [276-13], the “inhibitory activity, in words” value is reported as “stronger inhibitors”. In the case of `Cc1ccc(NC(=O)CN2C(=O)S/C(=C\c3cccc(O)c3)C2=O)cc1` [276-14], the “inhibitory activity, in words” value is reported as “lower activity”. For `Cc1ccc(NC(=O)CN2C(=O)S/C(=C\c3ccc(O)cc3)C2=O)cc1` [276-15], the “inhibitory activity, in words” value was “lower activity”.
